The target in data set [1] is T1, Heat shock factor protein 1 (Mus musculus, UniProt P38532).
T1 sequence (P38532 whole entry): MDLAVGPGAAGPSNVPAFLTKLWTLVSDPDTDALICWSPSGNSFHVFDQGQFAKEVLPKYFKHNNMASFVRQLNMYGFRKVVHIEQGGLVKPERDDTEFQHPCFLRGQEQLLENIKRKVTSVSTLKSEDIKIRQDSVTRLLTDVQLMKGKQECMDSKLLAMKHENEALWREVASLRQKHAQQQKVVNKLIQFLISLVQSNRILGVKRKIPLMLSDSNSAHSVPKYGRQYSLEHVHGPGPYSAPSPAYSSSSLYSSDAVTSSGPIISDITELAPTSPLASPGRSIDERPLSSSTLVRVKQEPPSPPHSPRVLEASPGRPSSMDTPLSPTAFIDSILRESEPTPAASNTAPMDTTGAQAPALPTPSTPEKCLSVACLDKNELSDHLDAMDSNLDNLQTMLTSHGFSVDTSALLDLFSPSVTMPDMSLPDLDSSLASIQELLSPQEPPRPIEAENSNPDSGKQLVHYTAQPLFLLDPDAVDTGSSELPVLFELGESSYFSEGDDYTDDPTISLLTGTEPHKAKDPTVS
Briefly: HSF1 potentiators in luciferase reporter cells, confirmation, cell-based, NIH3T3, luminescence, dose retest (AID 435004).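 Also: stress induced by proteasome inhibitor MG132 added 30 min after compound; luciferase reporter driven by HSF1 response element in NIH3T3 cells; actives raise luminescence as potentiators of the MG132 stress response.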 In kind it is functional.

A further data set concerns the target Cytochrome P450 3A4 (Homo sapiens, UniProt P08684).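 Also: CYP3A4 tested as one member of a cytochrome P450 panel screen.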
A further data set deals with Cytochrome P450 2C19 (Homo sapiens, UniProt P33261). In words: Cytochrome panel assay with activity outcomes. Panel member name: p450-cyp2c19 Compounds with AC50 equal or less than 10 uM are considered active. The data set is classed as functional.
The next data set concerns the target Cytochrome P450 2C9 (Homo sapiens, UniProt P11712).
In a further data set the target is T2, Streptokinase A (Streptococcus pyogenes serotype M1, UniProt P10520).
T2 sequence (P10520 whole entry): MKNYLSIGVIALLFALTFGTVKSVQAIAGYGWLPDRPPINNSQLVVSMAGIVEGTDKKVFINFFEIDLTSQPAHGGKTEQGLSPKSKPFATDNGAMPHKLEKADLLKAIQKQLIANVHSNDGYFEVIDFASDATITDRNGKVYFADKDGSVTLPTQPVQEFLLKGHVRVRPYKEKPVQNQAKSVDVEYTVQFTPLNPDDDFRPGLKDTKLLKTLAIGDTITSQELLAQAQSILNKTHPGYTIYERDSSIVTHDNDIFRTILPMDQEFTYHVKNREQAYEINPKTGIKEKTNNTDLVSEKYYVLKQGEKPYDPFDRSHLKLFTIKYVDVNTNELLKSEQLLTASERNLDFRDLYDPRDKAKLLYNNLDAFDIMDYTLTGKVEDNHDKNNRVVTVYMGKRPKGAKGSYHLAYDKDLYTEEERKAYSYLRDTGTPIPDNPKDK
In words: S. pyogenes streptokinase expression inhibitors, potency, dose response, plasminogen activation absorbance, OD405 (AID 1914).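 Also: secreted streptokinase activity via plasminogen activation per viability signal from cell pellet.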 The data set is classed as functional, Streptococcus pyogenes M1 GAS.

The nature of data set [2]: HEp-2 cell cytotoxicity, dose response, cytotoxicity control for RSV inhibitor project, HTS (AID 2410). The note with it: human respiratory syncytial virus. In kind it is functional.
In data set [3] the test system is Streptococcus sp. 'group A'. In words: growth inhibition of control SK(-) GAS strain, dose response, counter-screen for streptokinase expression inhibitor project, luminescence, kanamycin, BacTiterGlo, confirmation (AID 1900). The data set is classed as functional, organism-based.
Another data set has as its system Streptococcus. In words: Group A Streptococcus viability loss, dose response, counter-screen for streptokinase expression inhibitor project, luminescence, BacTiterGlo (AID 1915).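 Also: potency for reduction of bacterial viability or growth.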 In kind it is functional, organism-based.

The structures appear in SMILES notation. Activity calls are given as the source filed them.

Cytochrome P450 2C19, sequence (P33261 whole entry): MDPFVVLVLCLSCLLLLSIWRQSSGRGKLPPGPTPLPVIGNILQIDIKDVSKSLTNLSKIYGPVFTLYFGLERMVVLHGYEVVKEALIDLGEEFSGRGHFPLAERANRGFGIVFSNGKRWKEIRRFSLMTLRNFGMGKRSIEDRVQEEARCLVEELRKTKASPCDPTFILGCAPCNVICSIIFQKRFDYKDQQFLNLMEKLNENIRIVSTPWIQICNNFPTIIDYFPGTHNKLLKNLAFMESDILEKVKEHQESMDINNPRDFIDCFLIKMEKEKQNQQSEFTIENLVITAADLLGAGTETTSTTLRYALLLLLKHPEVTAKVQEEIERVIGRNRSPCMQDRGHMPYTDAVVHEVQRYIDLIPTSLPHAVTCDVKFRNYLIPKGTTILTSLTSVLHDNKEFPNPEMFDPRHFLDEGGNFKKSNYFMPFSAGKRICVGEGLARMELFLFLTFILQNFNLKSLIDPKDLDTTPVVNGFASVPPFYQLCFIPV
Cytochrome P450 2C9, sequence (P11712 whole entry): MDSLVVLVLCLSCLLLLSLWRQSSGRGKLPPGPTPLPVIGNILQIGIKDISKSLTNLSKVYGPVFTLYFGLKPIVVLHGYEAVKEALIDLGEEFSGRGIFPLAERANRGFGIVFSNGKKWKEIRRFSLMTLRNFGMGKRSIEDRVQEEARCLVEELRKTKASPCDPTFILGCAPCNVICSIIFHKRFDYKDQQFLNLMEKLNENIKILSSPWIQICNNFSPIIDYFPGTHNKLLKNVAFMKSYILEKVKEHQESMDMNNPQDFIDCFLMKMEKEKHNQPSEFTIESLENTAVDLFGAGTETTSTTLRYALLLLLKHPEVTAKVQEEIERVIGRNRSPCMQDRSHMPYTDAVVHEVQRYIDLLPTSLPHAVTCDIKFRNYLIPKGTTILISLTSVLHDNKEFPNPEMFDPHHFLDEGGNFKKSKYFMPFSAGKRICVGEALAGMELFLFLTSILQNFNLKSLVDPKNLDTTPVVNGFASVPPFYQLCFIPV
Cytochrome P450 3A4, sequence (P08684 whole entry): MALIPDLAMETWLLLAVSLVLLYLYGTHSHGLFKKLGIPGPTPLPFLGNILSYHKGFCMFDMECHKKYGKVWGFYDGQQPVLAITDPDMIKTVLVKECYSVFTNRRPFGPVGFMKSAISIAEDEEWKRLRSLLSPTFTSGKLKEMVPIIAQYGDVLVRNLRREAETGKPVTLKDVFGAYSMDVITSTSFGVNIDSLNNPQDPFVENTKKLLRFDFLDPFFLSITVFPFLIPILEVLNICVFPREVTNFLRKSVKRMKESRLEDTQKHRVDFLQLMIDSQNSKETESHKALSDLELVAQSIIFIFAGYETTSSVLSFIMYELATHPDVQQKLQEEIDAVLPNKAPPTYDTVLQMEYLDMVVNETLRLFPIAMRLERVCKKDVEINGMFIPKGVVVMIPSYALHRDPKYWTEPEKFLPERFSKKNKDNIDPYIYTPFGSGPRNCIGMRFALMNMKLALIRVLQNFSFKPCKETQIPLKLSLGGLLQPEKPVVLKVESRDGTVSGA

Consider `COc1ccccc1C(=O)CSc1nnc(-c2ccco2)o1`, for which the EC50 in data set [1] was 65 µM (active). Consider `O=c1c(-c2ccc(F)cc2)nc2cnc(Oc3cccc(Cl)c3)nc2n1C[C@H]1CCCO1`, for which the concentration at half-maximal activity (AC50) on Cytochrome P450 3A4 is 12.6 µM (inconclusive); on Cytochrome P450 2C19 (read-out: AC50) it was 39.8 µM (inconclusive). In the case of `COc1ccc(Oc2ncc3nc(C)c(=O)n(C[C@H]4CCCO4)c3n2)cc1`, the figures for the AC50 at Cytochrome P450 2C19 (read-out: AC50) and on Cytochrome P450 2C9 were 25.1 µM (inconclusive) and 39.8 µM (inconclusive), respectively. In the case of `C/C=C(/C)C(=O)Nc1cccc(C2=NOC3(C2)C[C@@H](C(N)=O)N(C(=O)CC)C3)c1` (stereo partly drawn), the EC50 in data set [1] is > 260 µM (inactive). Same read-out and setting: under `COc1ccc(-n2cnnc2SCC(=O)N(C)C2CCS(=O)(=O)C2)cc1` (stereo not drawn) stands > 260 µM (inactive); under `CCc1nc(O)c(C#N)c2c1CSC(C)(C)C2`, > 260 µM (inactive). Consider `O=C(CCC(=O)Nc1ccccc1)NNC(=O)c1cccs1`, for which the values for the AC50 on Cytochrome P450 2C19 (read-out: AC50) and at Cytochrome P450 2C9 were 39.8 µM (inconclusive) and 31.6 µM (inconclusive), respectively.

For `O=C(Nc1cccc(-c2csc(Nc3ccc(Cl)cc3)n2)c1)c1ccccc1`, the concentration for a half-maximal effect (EC50) on Streptokinase A was > 150 µM (not active); in data set [3], 4.01 µM (active); in the data set with Streptococcus it was 5.66 µM (active). In addition, the CC50 in data set [2] is 10.3 µM (active).

As to `O=C(c1ccco1)N1CCC[C@@]2(CCN(C(c3ccccc3)c3ccccc3)C2)C1`, the half-maximal activity concentration (AC50) at Cytochrome P450 2C9 is 31.6 µM (inconclusive).

With `CCN1CCN(S(=O)(=O)c2ccc(Cl)c(C(=O)Nc3nnc(CC(C)C)s3)c2)CC1`, the values for the AC50 at Cytochrome P450 2C19 (read-out: AC50) and on Cytochrome P450 2C9 were 39.8 µM (inconclusive) and 25.1 µM (inconclusive), respectively.

Regarding `Cc1cccc(C2C3=C(CCCC3=O)N=C3c4ccccc4C(=O)C32)c1` (stereo not drawn), the EC50 in data set [1] was 26.1 µM (active). With `CC(C)OC(=O)c1ccc(COc2ccc3ccc(=O)oc3c2)o1`, the EC50 in data set [1] was 66.6 µM (active). Take `CC1=C(C#N)C(NC(=O)C2CCCCC2)(C(F)(F)F)C(=O)N1` (stereo not drawn): the AC50 was 28.2 µM (inconclusive) at Cytochrome P450 2C19 (read-out: AC50) and 7.94 µM (inconclusive) at Cytochrome P450 2C9.

As to `Clc1cncc(N2CCNCC2)n1` [MK-212], the AC50 was 15.8 µM (inconclusive) on Cytochrome P450 3A4 and 6.31 µM (inconclusive) at Cytochrome P450 2C19 (read-out: AC50). Consider `CCCCCSc1nc2c(c(=O)[nH]c(=O)n2C)n1C`, for which, in data set [2], the CC50 is > 50 µM (active).

Take `CC(C)(C)OC(=O)N1CSC[C@H]1C(=O)NC[C@H](CC(=O)O)c1ccc(Cl)cc1`: in data set [1], the EC50 is > 260 µM (inactive). For `COc1cccc(N/C(SCc2cccc([N+](=O)[O-])c2)=C(/C#N)C(=O)NCc2cccs2)c1`, the EC50 in data set [1] was > 260 µM (inactive). As for `COc1cccc(N2CCN(S(=O)(=O)c3ccc(-c4coc(C)n4)cc3)CC2)c1`, in data set [1], the EC50 is > 260 µM (inactive). As to `CN1C(C(=O)Nc2ccccn2)=C(O)c2sccc2S1(=O)=O` [TENOXICAM], the concentration at half-maximal activity (AC50) at Cytochrome P450 2C9 was 2.51 µM (inconclusive). Turning to `O=C(Nc1cccc(C(F)(F)F)c1)c1n[nH]c(Cn2cncn2)n1`, the half-maximal activity concentration (AC50) at Cytochrome P450 3A4 is 25.1 µM (inconclusive); on Cytochrome P450 2C19 (read-out: AC50), 28.2 µM (inconclusive). With `C=CCCN(C1CCCC1)S(=O)(=O)c1ccccc1Br`, the cytotoxic concentration (CC50) in data set [2] was > 50 µM (active). Take `CCc1nc2ccccc2nc1O`: the 50% cytotoxic concentration (CC50) in data set [2] is 28.8 µM (active). Take `FC(F)(F)c1ccccc1/C=N/n1c(S)nnc1COc1ccccc1`: the CC50 in data set [2] is 32.1 µM (active). Same read-out and setting: the figure for `O=C(Cn1ccc(C(F)(F)F)n1)N=Nc1c(O)[nH]c2ccc(Br)cc12` is > 50 µM (active); for `CC1N(C)c2cc(NC(=O)c3ccco3)c(P(=O)(Nc3ccc([N+](=O)[O-])cc3)N3CCOCC3)cc2C1(C)C` (stereo not drawn) it is 18 µM (active). For the compound `Cc1ccc(-c2nc3ccccc3[nH]2)cc1NC(=O)c1ccc2c(c1)OCO2`, the EC50 in data set [1] was 70.2 µM (active). For `CCCNC(=O)NC(=O)CSc1cccc(C(F)(F)F)c1`, in data set [1], the EC50 is > 260 µM (inactive). As for `Cc1ccc(Cn2cccc(NC(=O)NCc3ccccc3)c2=O)cc1`, the AC50 was 5.01 µM (inconclusive) on Cytochrome P450 2C19 (read-out: AC50) and 14.1 µM (inconclusive) at Cytochrome P450 2C9.

Take `COc1cc(OC)c(C(=O)CCCCN2CCC3(CC2)NC(=O)NC3=O)cc1NS(=O)(=O)c1ccc(C(F)(F)F)cc1` [RS-102,221]: the half-maximal activity concentration (AC50) at Cytochrome P450 3A4 was 7.94 µM (inconclusive). The same measure, in the same setting: under `CN(C(=S)NC(=O)c1ccccc1Br)C1CCCCC1` stands 2.51 µM (inconclusive). For `COc1cc(-c2ccc(/N=N\c3ccc4c(S(=O)(=O)O)cc(S(=O)(=O)O)c(N)c4c3O)c(OC)c2)ccc1/N=N\c1ccc2c(S(=O)(=O)O)cc(S(=O)(=O)O)c(N)c2c1O`, the concentration at half-maximal activity (AC50) on Cytochrome P450 3A4 and at Cytochrome P450 2C9 was 10 µM (inconclusive) in each case. As for `ClCC1CS/C(=N\C23CC4CC(CC(C4)C2)C3)O1` (stereo not drawn), in data set [1], the EC50 is > 260 µM (inactive). As for `Cc1cc(N2CCOCC2)nc2ccc(NC(=O)CCC(=O)N3CCN(c4ccc(F)cc4)CC3)cc12`, the CC50 in data set [2] was > 12.5 µM (active).

Consider `COCCn1c(=O)c(C)nc2cnc(OC)nc21`, for which the AC50 at Cytochrome P450 3A4 was 31.6 µM (inconclusive). For the compound `CC(C)(O)C#Cc1ccc(C(=O)NCc2cccs2)s1`, the figures for the concentration at half-maximal activity (AC50) on Cytochrome P450 3A4 and at Cytochrome P450 2C19 (read-out: AC50) were 28.2 µM (inconclusive) and 17.8 µM (inconclusive), respectively.

On to `Nc1ncnc2c1CCC2`, for which the EC50 in data set [1] was > 260 µM (inactive). As to `CCC(C(=O)NC(C)CCc1ccccc1)n1nc(C)n2c(cc3occc32)c1=O` (stereo not drawn), the CC50 in data set [2] is 39.2 µM (active). On to `Cn1c(CN2CCN(c3ccc(Cl)cc3)CC2)nc2ccccc21`, for which the EC50 in data set [1] is > 260 µM (inactive). Turning to `COc1ccc(-n2c(=O)c3c4c(sc3n(CC(N)=O)c2=O)CCCCC4)cc1`, in data set [1], the EC50 is > 260 µM (inactive). On to `Cc1cc(NC(=O)c2c([N+](=O)[O-])cnn2C)no1`, for which the AC50 on Cytochrome P450 3A4 was 25.1 µM (inconclusive); at Cytochrome P450 2C9, 39.8 µM (inconclusive). As for `COc1ccc(CCNC=C2C(=O)CC(C)(C)CC2=O)cc1`, the AC50 is 28.2 µM (inconclusive) at Cytochrome P450 2C19 (read-out: AC50) and 12.6 µM (inconclusive) at Cytochrome P450 2C9.

Turning to `Cc1ccc(C)c(NC2CCCCC2NS(=O)(=O)c2ccccc2)c1` (stereo not drawn), in data set [1], the EC50 was > 260 µM (inactive). With `CCC1CCCCN1c1nc2c(C=O)c(C)nn2c2ccccc12` (stereo not drawn), the CC50 in data set [2] was 20.5 µM (active).

On to `O=c1nc(SCc2cccc([N+](=O)[O-])c2)[nH]c2nc[nH]c12`, for which the results for the AC50 at Cytochrome P450 3A4 and on Cytochrome P450 2C19 were 3.16 µM (inconclusive) and “inconclusive”, respectively. On to `CCOc1ccc(-c2nn(-c3ccccc3)cc2/C=C(\C#N)S(=O)(=O)c2ccccc2)cc1C`, for which the AC50 on Cytochrome P450 3A4 was 11.2 µM (inconclusive); on Cytochrome P450 2C9 it was 10 µM (inconclusive).

Take `C=CCn1c(SCc2cc(=O)n3ccsc3n2)nc2scc(C3CC3)c2c1=O`: in data set [2], the 50% cytotoxic concentration (CC50) is 33.1 µM (active).

Source of the values: ChEMBL document CHEMBL1201862, “PubChem BioAssay data set” (2004).
